Earlier results in patent publication US20030171329A1, “Stable compositions comprising tezacitabine” (priority 2002, published 2003).
Like-named read-outs stand apart in the source and are kept apart here.

Experiments:
[1] = tested on: replicating strand of DNA; conditions: incorporated directly into the replicating strand of DNA; cited from earlier work
[2] = cited from earlier work
ribonucleotide reductase = target: T1, ribonucleotide reductase (Homo sapiens, UniProt P23921); conditions: cited from earlier work
T1 sequence (P23921 1-792): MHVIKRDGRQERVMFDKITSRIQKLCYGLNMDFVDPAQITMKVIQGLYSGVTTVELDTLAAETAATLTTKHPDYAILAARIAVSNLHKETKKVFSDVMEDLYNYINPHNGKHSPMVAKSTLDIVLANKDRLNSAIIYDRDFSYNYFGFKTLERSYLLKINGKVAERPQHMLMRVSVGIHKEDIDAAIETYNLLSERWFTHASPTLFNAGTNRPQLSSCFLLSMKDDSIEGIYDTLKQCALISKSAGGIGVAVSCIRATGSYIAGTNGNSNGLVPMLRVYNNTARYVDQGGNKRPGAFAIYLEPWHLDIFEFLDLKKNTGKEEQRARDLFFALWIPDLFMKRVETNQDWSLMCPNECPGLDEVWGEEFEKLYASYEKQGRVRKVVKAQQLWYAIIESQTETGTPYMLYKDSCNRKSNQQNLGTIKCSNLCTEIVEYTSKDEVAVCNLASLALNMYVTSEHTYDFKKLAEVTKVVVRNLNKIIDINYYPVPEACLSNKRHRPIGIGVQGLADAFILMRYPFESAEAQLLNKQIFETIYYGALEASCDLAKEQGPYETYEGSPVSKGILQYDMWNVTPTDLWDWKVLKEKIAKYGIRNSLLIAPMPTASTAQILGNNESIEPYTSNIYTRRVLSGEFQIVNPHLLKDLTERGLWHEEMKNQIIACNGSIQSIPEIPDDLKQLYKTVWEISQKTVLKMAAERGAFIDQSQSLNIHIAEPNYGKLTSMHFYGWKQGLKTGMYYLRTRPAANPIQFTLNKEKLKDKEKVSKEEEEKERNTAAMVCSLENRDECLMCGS
T1 sequence (P31350 1-389 partner): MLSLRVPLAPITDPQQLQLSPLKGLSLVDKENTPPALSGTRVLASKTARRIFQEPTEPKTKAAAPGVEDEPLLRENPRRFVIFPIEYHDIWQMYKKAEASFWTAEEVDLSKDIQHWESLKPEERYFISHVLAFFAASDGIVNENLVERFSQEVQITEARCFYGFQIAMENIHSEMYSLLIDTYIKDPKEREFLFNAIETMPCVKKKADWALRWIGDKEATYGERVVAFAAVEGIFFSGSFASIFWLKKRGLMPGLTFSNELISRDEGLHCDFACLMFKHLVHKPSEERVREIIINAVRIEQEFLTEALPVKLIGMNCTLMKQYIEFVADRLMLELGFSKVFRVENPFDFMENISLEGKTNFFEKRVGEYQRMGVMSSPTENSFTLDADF

Compound: Nc1ccn(C2OC(COP(=O)(O)OP(=O)(O)OP(=O)(O)O)C(O)C2=CF)c(=O)n1 (centres unmarked) [tezacitabine triphosphate]
- effect on DNA synthesis [1]: causes premature chain termination

Compound: Nc1ccn([C@@H]2O[C@H](CO)[C@@H](O)[C@@H]2O)c(=O)n1 [Cytarabine]
- pH of best stability ([2]; aqueous solution): most stable at neutral pH (7-8)

Compound: Nc1ccn([C@@H]2O[C@H](CO)[C@@H](O)C2(F)F)c(=O)n1 [Gemcitabine]
- stability in words ([2]; acid conditions (low pH)): relatively stable
- stability in words ([2]; high pH): considerably less stable

Compound: Nc1ccn(C2OC(COP(=O)(O)OP(=O)(O)O)C(O)C2=CF)c(=O)n1 (centres unmarked) [tezacitabine diphosphate]
- effect on ribonucleotide reductase (ribonucleotide reductase): inhibits ribonucleotide reductase
